The compounds below were run on enone reductase (assay: Substrate specificity of the enone reductase (standard enzyme assay with various substrates)). Conditions: 0.05% final concentration, 30° C.
Type: biochemical, Candida kefyr (Candida macedoniensis) IFO 0960
Experimental: (§1) The standard enzyme assay was performed as follows: a total volume of 1 ml of the basal reaction mixture (200 μl of 1 M Tris-HCl buffer pH 7.5, 100 μl of 80 mM NADH or NADPH, 100 μl of 0.658 M ketoisophorone, 600 μl H2O) was supplemented by 5 μl of the enzyme solution and incubated at 40° C. One unit of the enzyme activity was defined as the amount of the enzyme, which catalyzes the […] of 1 μmol of ketoisophorone per minute. The reaction mixture was extracted by 1 ml of ethylacetate to recover the levodione into the ethylacetate layer. The extract was analyzed by gas chromatography [column: ULBON HR-20M (Shinwa, Japan) 0.25 mmφ×30 m, column temperature: 160° C. (constant), injector temperature: 250° C., carrier gas: He (ca. 1 ml/min)]. The protein concentration was determined by using a Bio-Rad protein assay kit (Bio-Rad, USA).
Substrate specificity of the enzyme was determined by using the same enzyme assay method as described above under (1), except that various substrate solutions (0.05% final concentration in the reaction mixture) were used instead of ketoisophorone, and the reaction was done at 30° C. The relative activity (%) of different substrates is compared in Table 1, showing the best result with 3-butene-2-one.

Row | Compound | relative activity of different substrates (in words)
1 | C=CC(C)=O [3-Butene-2-one] | best result

Same assay, conditions: as substrate, 0.05% final concentration, 30° C., ketoisophorone = 100

Row | Compound | Relative Activity (%)
2 | O=C1C=CCCC1 [2-Cyclohexen-1-one] | 252.1
3 | R-(−)-Carvone | 56.3
4 | O=[N+]([O-])C1=CCCCC1 [1-Nitro-1-cyclohexen] | 373.8
5 | O=CC=Cc1ccccc1 [Cinnamaldehyde] | 216.7
6 | CC1=CC(=O)CC(C)(C)C1=O [Ketoisophorone, 2,6,6-trimethyl-2-cyclohexene-1,4-dione] | 100
7 | C=CC(C)=O [3-Butene-2-one] | 403.3

The compounds below were run on enone reductase (assay: Effect of metal ions and other compounds on the enzyme activity). Conditions: not given.
Type: biochemical, Candida kefyr (Candida macedoniensis) IFO 0960

Row | Compound | Relative Activity (%) | inhibition of the enzyme activity (in words)
8 | O=C(O)CN(CCN(CC(=O)O)CC(=O)O)CC(=O)O [EDTA] | 110 | 
9 | [Cl-].[Na+] [NaCl] | 108 | 
10 | O=S(=O)([O-])[O-].[Cu+2] [CuSO4] | 55.9 | inhibited the enzyme activity moderately
11 | N#C[S-].[Na+] [NaSCN] | 93.6 | 
12 | [Cl][Cd][Cl] [CdCl2] | 104 | 
13 | CoCl2 | 113 | 
14 | [F-].[Na+] [NaF] | 101 | 
15 | O=C(O)CI [Iodoacetate] | 93.6 | 
16 | O=[N+]([O-])[O-].O=[N+]([O-])[O-].[Pb+2] [Pb(NO3)2] | 0 | inhibited the enzyme activity strongly
17 | [Cl-].[Cl-].[Mg+2] [MgCl2] | 111 | 
18 | [Ca+2].[Cl-].[Cl-] [CaCl2] | 108 | 
19 | C[n+]1c2cc(N)ccc2cc2ccc(N)cc21.[Cl-] [Trypaflavine] | 0 | inhibited the enzyme activity strongly
20 | [Cl][Mn][Cl] [MnCl2] | 94.6 | 
21 | [Cl-].[Rb+] [RbCl] | 107 | 
22 | O=S(=O)([O-])[O-].[Zn+2] [ZnSO4] | 101 | 
23 | O=[N+]([O-])[O-].[Ag+] [AgNO3] | 49.1 | inhibited the enzyme activity moderately
24 | [Cl-].[K+] [KCl] | 103 | 
25 | [Cl][Ni][Cl] [NiCl] | 108 | 
26 | [NH4+].[O]=[V](=[O])[O-] [NH4VO3] | 9.6 | inhibited the enzyme activity moderately
27 | O=S(=O)([O-])[O-].[Be+2] [BeSO4] | 80.9 | 

Same assay, conditions: compound added, final concentration of metal 1 mM, substrate 2-cyclohexen-1-one, None = 100

Row | Compound | Relative Activity (%)
28 | N=C(N)N [Guanidine] | 61.1
29 | [Cl][Hg][Cl] [HgCl2] | 40.8
30 | [Cl-].[Li+] [LiCl] | 104

Same assay, conditions: final concentration of metal 1 mM, substrate 2-cyclohexen-1-one

Row | Compound | inhibition of the enzyme activity (in words)
31 | N=C(N)N [Guanidine] | inhibited the enzyme activity moderately
32 | [Cl][Hg][Cl] [HgCl2] | inhibited the enzyme activity moderately

Each compound was assayed on enone reductase (assay: Cofactor requirement of the enzyme to convert ketoisophorone to levodione). Conditions: not given.
Type: biochemical, Candida kefyr (Candida macedoniensis) IFO 0960
Experimental: as §1
The cofactor requirement of the enzyme to convert ketoisophorone to levodione was investigated.

Row | Compound | serves as co-factor for the reductive reaction
33 | NC(=O)C1=CN([C@@H]2O[C@H](COP(=O)(O)OP(=O)(O)OC[C@H]3O[C@@H](n4cnc5c(N)ncnc54)[C@H](OP(=O)(O)O)[C@@H]3O)[C@@H](O)[C@H]2O)C=CC1 [NADPH] | could serve as a co-factor
34 | NC(=O)C1=CN([C@@H]2O[C@H](COP(=O)(O)OP(=O)(O)OC[C@H]3O[C@@H](n4cnc5c(N)ncnc54)[C@H](O)[C@@H]3O)[C@@H](O)[C@H]2O)C=CC1 [NADH] | could serve as a co-factor

— US7202068B2, “Enone reductase and methods of making and using thereof” (priority 2002, dated 2007)
